Results as given in article PMC11966994 (Emerging Microbes & Infections, 2025).

Columns and labels:
influenza virus = format: cell-based
IFNα/β mRNA = format: cell-based
in vitro [1] = details: African green monkey
in vitro [2] = details: human
[3] = rat, in vivo, 10 mg/kg; cited from earlier work

O=C(O[C@@H]1[C@@H](O)[C@H](Oc2cc(O)c(C(=O)CCc3ccccc3)c(O)c2)O[C@@H]2COC(=O)c3cc(O)c(O)c(O)c3-c3c(cc(O)c(O)c3O)C(=O)O[C@@H]12)c1cc(O)c(O)c(O)c1 [Compound 46, Thonningianin A]
effect on influenza virus replication (influenza virus): did not significantly affect | effect on IFNα/β mRNA expression levels (IFNα/β mRNA): did not significantly affect | CC50 (in vitro [1]): 10.6 µM | CC50 (in vitro [2]): 20.2 µM | t₁/₂ [3]: 3.69 h
